We go through one compound from US20210213104A1, “GLUCAGON AND GLP-1 CO-AGONISTS FOR THE TREATMENT OF CHRONIC KIDNEY DISEASE AND DIABETIC KIDNEY DISEASE IN TYPE 2 DIABETES” (MEDIMMUNE LIMITED, priority 2020, published 2021).

The assay has as its system subjects with T2DM and renal impairment. Put plainly: Phase 2a: total daily insulin dose adjustment. Type of assay: in vivo, human. As to the method:
The effect of Cotadutide on insulin dose adjustment was evaluated for subjects on ≥20 U/day insulin. […] The mean percent reduction in total daily insulin dose from baseline until the end of dosing was statistically significant compared to placebo, especially in the HbA1c<8.0% subgroup (Table 15).

Regarding `CCCCCCCCCCCCCCCC(=O)N[C@@H](CCC(=O)NCCCC[C@H](NC(=O)[C@H](CC(=O)O)NC(=O)[C@H](CO)NC(=O)[C@@H](NC(=O)[C@H](Cc1ccccc1)NC(=O)[C@@H](NC(=O)CNC(=O)[C@H](CCC(N)=O)NC(=O)[C@H](CO)NC(=O)[C@@H](N)Cc1c[nH]cn1)[C@@H](C)O)[C@@H](C)O)C(=O)N[C@@H](CO)C(=O)N[C@@H](CCC(=O)O)C(=O)N[C@@H](Cc1ccc(O)cc1)C(=O)N[C@@H](CC(C)C)C(=O)N[C@@H](CC(=O)O)C(=O)N[C@@H](CO)C(=O)N[C@@H](CCC(=O)O)C(=O)N[C@@H](CCCNC(=N)N)C(=O)N[C@@H](C)C(=O)N[C@@H](CCCNC(=N)N)C(=O)N[C@@H](CC(=O)O)C(=O)N[C@@H](Cc1ccccc1)C(=O)N[C@H](C(=O)N[C@@H](C)C(=O)N[C@@H](Cc1c[nH]c2ccccc12)C(=O)N[C@@H](CC(C)C)C(=O)N[C@@H](CCC(=O)O)C(=O)N[C@@H](C)C(=O)NCC(=O)NCC(=O)O)C(C)C)C(=O)O` [Cotadutide], the “reduction in insulin dose” value (over 32 days, P=0.012) is recorded as 35.2%. In addition, the “percentage reduction from baseline in total daily insulin dose at the end of treatment” value (participants with insulin dose of at least 20 U/day, Day −2 to end of treatment) is −35.2%.
